Experimental findings from patent publication US8975265B2, “Substituted imidazo[1,2-a]pyrimidines and —pyridines” (Bayer Intellectual Property GmbH, priority 2010, dated 2015) are described below.

Read-outs that look alike come from different tables or passages of the source.

Assay [1] addresses His-tagged human recombinant kinase full-length Akt1 (Homo sapiens (Human), UniProt P31749). Nature of the assay: Akt1 kinase assay (TR-FRET). The format is biochemical. The note with it: 10 μM ATP; read-out: Akt1, median IC50. In a few lines:
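Full-length His-tagged Akt1 (about 0.05 ng/μl final) preincubated 15 min at 22 °C with compound in 50 mM TRIS/HCl pH 7.5, 5 mM MgCl2, 1 mM DTT, 0.02% Triton X-100; biotinylated peptide substrate. Phosphopeptide detected by TR-FRET (Eu-chelate antibody to streptavidin-XL665) after 1 h at 22 °C.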
(In general: TR-FRET usually uses a lanthanide donor and a delayed reading to cut background.)

The next assay concerns LnCAP. The experiment in a line: Tumor cell proliferation assay (CellTiter-Glo, 72 h), LnCAP. The format is cell-based. Particulars: Homo sapiens, 72h drug exposure. As for the experimental part: Compounds were tested in a cell-based assay that measures the capacity of the compounds to inhibit tumour cell proliferation following a 72h drug exposure. Cell viability is determined using CellTiter-Glow® (CTG, Promega, cat# G7571/2/3). The CellTiter-Glo® Luminescent Cell Viability Assay is a homogeneous method to determine the number of viable cells in culture. Detection is based on using the luciferase reaction to measure the amount of ATP from viable cells. The amount of ATP in cells correlates with cell viability. Within minutes after a loss of membrane integrity, cells lose the ability to synthesize ATP, and endogenous ATPases destroy any remaining ATP; thus the levels of ATP fall precipitously.
Cells were plated at 3000-5000 cells/well (depending on the cell lines) in 90 μL growth medium on MTPs (Corning; #3603, black plate, clear flat bottom). For each cell line assayed, cells were plated onto a separate plate for determination of […] at t=0 hour and t=72 hour time points. Following overnight incubation at 37° C., chemiluminescence values for the t=0 samples were determined after adding 10 μl medium and 100 μl CTG solution according to manufacture protocol. Plates for the t=72 hour time points were treated with compounds diluted into growth medium at ten times final concentration added in 10 μL to the cell culture plate. Cells were then incubated for 72 hours at 37° C. Chemiluminescence values for the t=72 hour samples were determined. […] Experiments were controlled using a reference compound as standard.

In assay [2] the test system is p-AKT1/2/3-S473 in KPL4 breast tumour cell line. Nature of the assay: Cellular p-AKT1/2/3-S473 assay. The note with it: KPL4 breast tumour cell line, 2 hours treatment; read-out: pAKT-S743 median IC50. Format: cell-based. In a few lines: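 KPL4 cells (PIK3CA H1047R, HER2 0/E, hormone independent) were seeded at 60–80% confluency, cultured overnight, then exposed to compound for 2 h at 37 °C. pAKT-S473 and total AKT measured together by MSD Akt Duplex on 20 µg extract; pAKT expressed as % of total AKT, at least duplicate with independent repeats.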

In assay [3] the test system is KPL-4 breast cancer cell line. Nature of the assay: Tumor cell proliferation assay (CellTiter-Glo, 72 h), KPL-4. Format: cell-based. Particulars: KPL4, 72h drug exposure. The essentials: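 KPL-4 cells were treated with compound for 72 h at 37°C. Viability was measured as ATP by CellTiter-Glo luminescence, with a separate t=0 plate read after overnight attachment. A reference compound was run as standard.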
For orientation: In ATP-based viability assays light output follows the ATP content of the culture.

Assay [4] has as its system p-AKT S473 in PC3 human prostate tumours. The experiment in a line: In vivo xenograft mechanism of action study. Also on record: species or system athymic nude mice. The note with it: Mus musculus, po, PC3 tumours in nude mice, once 50 mg/kg p.o. The source says: In Vivo Xenograft Mechanism of Action Study
To this extent PC3 human prostate tumours were xenografted onto athymic nude mice. PC3 tumour cells were cultivated according to ATCC protocols in recommended media contained 10% FCS and harvested for transplantation in a subconfluent (70%) state. 3×10^6 tumour cells suspended in 50% Matrigel were subcutaneously implantated into the inguinal region of male mice. Tumours were allowed to grow to the predetermined size of 60-80 mm^2. When the tumours were approximately in size, the animals were randomized to treatment and control groups (groups size: 9 animals) and treatment was started. Animals were treated once with 50 mg/kg compound or vehicle per oral administration (p.o.) carried out via a gastric tube. Treatment of each animal was based on individual body weight. At 2, 5 and 24 hours post treatment 3 animals each were sacrificed and the PC3 tumours excised. Tumour samples of approximately 5×5×5 mm were lysed on ice in MSD lysis buffer in the presence of protease and phosphatase inhibitors using Tissue Lyzer (Qiagen, Germany). The levels of p-AKT S473 in extracts from tumour tissue were analysed in an ELISA based assay. This assay is based on the “Akt Duplex” of the MULTI-SPOT® Assay System (Fa. Meso Scale Discovery, Cat# N41100B-1) following manufacturers instructions. Each assay used 20 μg of protein extract and measured total AKT and p-AKT content simultaneously in one well. All measurements where at least done in duplicates and confirmed by independent repetition.
Values for P-AKT are expressed as percentage of P-AKT level compared to total-AKT content of the extracts. Vehicle treated tumours were analyzed to determine the basal level of P-AKT in this model and used as a normalization control to determine the % P-AKT relative to vehicle levels.

The subject of another assay is MCF7. The experiment in a line: Tumor cell proliferation assay (CellTiter-Glo, 72 h), MCF7. Format: cell-based. Particulars: Homo sapiens, 72h drug exposure. In a few lines:
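Cells seeded at 3000–5000/well and incubated overnight, then exposed to compound for 72 h at 37 °C. Viability measured by CellTiter-Glo ATP luminescence, with a separate plate read at t=0.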

Assay [5] relates to p-4E-BP1-T70 in KPL4 breast tumour cell line. The experiment in a line: Cellular p-4E-BP1-T70 assay. Format: cell-based. The note with it: 2 hours treatment, read-out: P4EBP1-T70 median IC50. In a few lines:
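KPL4 cells (PIK3CA H1047R, hormone independent) seeded at 60-80% confluency, incubated overnight, then exposed to compounds for 2 h at 37 °C. Lysates assayed for phospho-4E-BP1 T70 by AlphaScreen SureFire, in at least duplicate with independent repetition.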

Where [6] appears, read: 2 hours post treatment, read-out: P-AKT % relative to control at 2 hours.
Setting [7] is: 5 hours post treatment, read-out: P-AKT % relative to control at 5 hours.

Sequence of His-tagged human recombinant kinase full-length Akt1 (P31749 whole entry): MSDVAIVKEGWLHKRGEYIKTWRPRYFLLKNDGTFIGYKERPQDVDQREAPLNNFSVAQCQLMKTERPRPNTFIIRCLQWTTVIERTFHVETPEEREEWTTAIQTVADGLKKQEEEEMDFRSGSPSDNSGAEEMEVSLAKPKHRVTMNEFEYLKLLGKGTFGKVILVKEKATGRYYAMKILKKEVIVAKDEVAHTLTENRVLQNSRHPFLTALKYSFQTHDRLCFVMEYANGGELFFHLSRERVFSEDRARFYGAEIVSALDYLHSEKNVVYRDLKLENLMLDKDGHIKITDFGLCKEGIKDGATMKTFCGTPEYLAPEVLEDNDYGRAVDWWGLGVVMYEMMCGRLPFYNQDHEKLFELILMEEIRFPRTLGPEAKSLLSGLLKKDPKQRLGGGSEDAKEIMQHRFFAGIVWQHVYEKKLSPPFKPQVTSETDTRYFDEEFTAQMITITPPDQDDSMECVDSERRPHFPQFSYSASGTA

For `NC1(c2ccc(-c3nc4ccc(-c5cccnc5O)cn4c3-c3ccccc3)cc2)CCC1` [Example 11-0, 3-{2-[4-(1-amino-cyclobutyl)-phenyl]-3-phenyl-imidazo[1,2-a]pyridin-6-yl}-pyridin-2-ol], the IC50 was determined as 1510 nM in assay [1], 2000 nM in the assay with LnCAP, 588 nM in assay [2] and 2200 nM in assay [3].

For `COC(=O)CCc1ccn2c(-c3ccccc3)c(-c3ccc(C4(N)CCC4)cc3)nc2c1` [Example 2-125], the concentration for half-maximal inhibition (IC50) in assay [1] came out at 3440 nM; in the assay with LnCAP, 9900 nM; in assay [2] it was 3070 nM; in assay [3] it was 3100 nM.

In the case of `NC1(c2ccc(-c3nc4cc(-c5cccnc5)ccn4c3-c3ccccc3)cc2)CCC1` [Example 2-110], the response vs control in vivo at 50 mg/kg in assay [4] (setting [6]) came to 10.2%; in assay [4] (setting [7]), 16.4%. For the same compound, the 50% inhibitory concentration (IC50) in assay [1] came out at 129 nM; in the assay on LnCAP, 500 nM; with MCF7, 700 nM; in assay [2] it was 41 nM; in assay [3], 1700 nM.

As for `NC1(c2ccc(-c3nc4cc(C(=O)NO)ccn4c3-c3ccccc3)cc2)CCC1` [Example 2-127], the 50% inhibitory concentration (IC50) stood at 132 nM in assay [1]; 1200 nM in the assay with LnCAP; 1680 nM in assay [2]; 5400 nM in assay [3]; 4870 nM in assay [5].

With `COc1cc(C(N)=O)cn2c(-c3ccccc3)c(-c3ccc(C4(N)CCC4)cc3)nc12` [Example 1-13], the response vs control in vivo at 50 mg/kg in assay [4] (setting [6]) was 95.7%; in assay [4] (setting [7]), 152%. For the same compound, the half-maximal inhibitory concentration (IC50) in assay [1] is 24 nM; with LnCAP, 1100 nM; in the assay on MCF7, 400 nM; in assay [2] it was 35 nM; in assay [3] it was 900 nM; in assay [5], 1020 nM.

In the case of `CCc1ccn2c(-c3ccccc3)c(-c3ccc(C4(N)CCC4)cc3)nc2c1` [Example 2-21], the IC50 was found to be 1660 nM in assay [1]; 1900 nM with LnCAP; 2000 nM in the assay with MCF7; 537 nM in assay [2]; 2000 nM in assay [3].

Regarding `CCOC(=O)c1ccc2nc(-c3ccc(C4(N)CCC4)cc3)c(-c3ccccc3)n2c1` [Example 2-143], the IC50 worked out at 93 nM in assay [1]; 1800 nM with LnCAP; 901 nM in assay [2]; 9500 nM in assay [3]; 1210 nM in assay [5].

With `NC(=O)c1cc(Cl)c2nc(-c3ccc(C4(N)CCC4)cc3)c(-c3ccccc3)n2c1` [Example 6-1, 2-[4-(1-amino-cyclobutyl)-phenyl]-8-chloro-3-phenyl-imidazo[1,2-a]pyridine-6-carboxylic acid amide], the response vs control in vivo at 50 mg/kg was determined as 7.7% in assay [4] (setting [6]) and 7.5% in assay [4] (setting [7]). The concentration for half-maximal inhibition (IC50) is 12 nM in assay [1]; 400 nM in the assay with LnCAP; 300 nM with MCF7; 5 nM in assay [2]; 300 nM in assay [3].

For the compound `Cc1cc(-c2ccc3nc(-c4ccc(C5(N)CCC5)cc4)c(-c4ccccc4)n3c2)[nH]n1` [Example 12-0, 1-{4-[6(5-methyl-2H-pyrazol-3-yl)-3-phenyl-imidazo[1,2-a]pyridin-2-yl]-phenyl}-cyclobutylamine], the 50% inhibitory concentration (IC50) in assay [1] worked out at 688 nM; in the assay on LnCAP, 1700 nM; in assay [2] it was 339 nM; in assay [3], 1900 nM.

Regarding `CCNC(=O)c1ccn2c(-c3ccccc3)c(-c3ccc(C4(N)CCC4)cc3)nc2c1` [Example 2-126], the IC50 in assay [1] amounted to 601 nM; in the assay on LnCAP, 1000 nM; in assay [2], 125 nM; in assay [3], 1600 nM.

`Cn1cncc1-c1ccc2nc(-c3ccc(C4(N)CCC4)cc3)c(-c3ccccc3)n2c1` [Example 2-133]: the IC50 in the assay with LnCAP worked out at 1700 nM; in assay [2] it was 244 nM; in assay [3], 2000 nM.

`NC1(c2ccc(-c3nc4cc(-c5cnc[nH]5)ccn4c3-c3ccccc3)cc2)CCC1` [Example 2-115]: the IC50 was determined as 1700 nM in the assay on LnCAP, 192 nM in assay [2] and 1800 nM in assay [3].

On to `Cn1cc(-c2ccc3nc(-c4ccc(C5(N)CCC5)cc4)c(-c4ccccc4)n3c2)cn1` [Example 2-134], for which the IC50 turned out to be 691 nM in assay [1], 1800 nM with LnCAP and 132 nM in assay [2].

For `COc1cc(Cl)cn2c(-c3ccccc3)c(-c3ccc(C4(N)CCC4)cc3)nc12` [Example 2-145], the response vs control in vivo at 50 mg/kg stood at 33% in assay [4] (setting [6]) and 38% in assay [4] (setting [7]). In addition, the IC50 in assay [1] was determined as 24 nM; in the assay with MCF7, 300 nM; in assay [2] it was 105 nM; in assay [3], 1000 nM; in assay [5] it was 1210 nM.

As for `CC(=O)c1ccc2nc(-c3ccc(C4(N)CCC4)cc3)c(-c3ccccc3)n2c1` [Example 2-144], the response vs control in vivo at 50 mg/kg in assay [4] (setting [6]) turned out to be 6.3%; in assay [4] (setting [7]), 8%. Further, the IC50 in assay [1] came to 55 nM; with MCF7, 1300 nM; in assay [2], 91 nM; in assay [3] it was 1700 nM; in assay [5] it was 1310 nM.

Turning to `Cc1cc(-c2ccn[nH]2)c2nc(-c3ccc(C4(N)CCC4)cc3)c(-c3ccccc3)n2c1` [Example 2-92], the response vs control in vivo at 50 mg/kg is 34.6% in assay [4] (setting [6]) and 22% in assay [4] (setting [7]). Besides, the half-maximal inhibitory concentration (IC50) was 229 nM in assay [1]; 4300 nM with MCF7; 1400 nM in assay [2]; 4300 nM in assay [3]; 1570 nM in assay [5].

A word on the IC50: it is the concentration that gives 50% inhibition.
